The values that follow come from the supplement of paper PMC8920030.

Settings in all cases: growth mode: biofilm, 24 h; exposure time: 24 h
Compound in experiment [1]: T1, CCC(C)CCCC(=O)N[C@@H](CCN)C(=O)N[C@H](C(=O)N[C@@H](CCN)C(=O)N[C@H]1CCNC(=O)[C@H]([C@@H](C)O)NC(=O)[C@H](CCN)NC(=O)[C@H](CCN)NC(=O)[C@H](CC(C)C)NC(=O)[C@@H](CC(C)C)NC(=O)[C@H](CCN)NC1=O)[C@@H](C)O [colistin]
Nature of the experiment: minimum concentration eradicating biofilm below detection limit (MCK-E); higher = more biofilm tolerance. As for the experimental part:
(§1)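 Clinical P. aeruginosa isolates were grown as static biofilms for 24 h at 37 °C in LB in half-area 96-well plates, then exposed for 24 h to colistin at 1, 4, 16, 64, 256 or […]. Surviving CFU were counted by spotting serial dilutions. MCK is the lowest tested concentration giving the stated log reduction in CFU versus an untreated control; '>1024' means the reduction was not reached at the top dose, and 1 is the lowest dose tested (≤1).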

Compound in experiment [2]: T2, NC[C@H]1O[C@H](O[C@H]2[C@H](O)[C@@H](O[C@H]3O[C@H](CO)[C@@H](O)[C@H](N)[C@H]3O)[C@H](N)C[C@@H]2N)[C@H](N)C[C@@H]1O [tobramycin]
Described as above. As for the experimental part:
(§2)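 Clinical P. aeruginosa isolates were grown as static biofilms for 24 h at 37 °C in LB in half-area 96-well plates, then exposed for 24 h to tobramycin at 1, 4, 16, 64, 256 or […]. Surviving CFU were counted by spotting serial dilutions. MCK is the lowest tested concentration giving the stated log reduction in CFU versus an untreated control; '>1024' means the reduction was not reached at the top dose, and 1 is the lowest dose tested (≤1).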

Compound in experiment [3]: T1, colistin
Description: minimum concentration of killing, 1-log CFU reduction of biofilm (MCK90); higher = more biofilm tolerance. As to the method: as §1

Compound in experiment [4]: T1, colistin
Description: minimum concentration of killing, 2-log CFU reduction of biofilm (MCK99); higher = more biofilm tolerance. As for the experimental part:
as §1

Compound in experiment [5]: T2, tobramycin
Nature of the experiment: minimum concentration of killing, 1-log CFU reduction of biofilm (MCK90); higher = more biofilm tolerance. As to the method:
as §2

Compound in experiment [6]: T2, tobramycin
Nature of the experiment: minimum concentration of killing, 2-log CFU reduction of biofilm (MCK99); higher = more biofilm tolerance. As to the method:
as §2

Compound in experiment [7]: T1, colistin
Description: minimum concentration of killing, 4-log CFU reduction of biofilm (MCK99.99); higher = more biofilm tolerance. As for the experimental part: as §1

Compound in experiment [8]: T2, tobramycin
Described as above. As to the method: as §2

For the test system “Pseudomonas aeruginosa clinical isolate ESP036”, the “minimum concentration eradicating biofilm below detection limit” value worked out at 256 µg/mL in the experiment with colistin [1] and 64 µg/mL with tobramycin [2]. The “minimum concentration of killing” value in the experiment with colistin [3] was 256 µg/mL; with colistin [4], 256 µg/mL; with tobramycin [5], no more than 1 µg/mL; with tobramycin [6], 4 µg/mL; with colistin [7], 256 µg/mL; in the experiment with tobramycin [8], 16 µg/mL.
On to “Pseudomonas aeruginosa clinical isolate ESP037”, for which the “minimum concentration eradicating biofilm below detection limit” value worked out at 64 µg/mL with colistin [1] and 256 µg/mL with tobramycin [2]. For the same test system, the “minimum concentration of killing” value with colistin [3] stood at 64 µg/mL; in the experiment with colistin [4] it was 64 µg/mL; with tobramycin [5], 4 µg/mL; with tobramycin [6], 4 µg/mL; in the experiment with colistin [7] it was 64 µg/mL; with tobramycin [8], 64 µg/mL.
With “Pseudomonas aeruginosa clinical isolate ESP038”, the “minimum concentration eradicating biofilm below detection limit” value in the experiment with colistin [1] turned out to be 256 µg/mL; with tobramycin [2], 64 µg/mL. Further, the “minimum concentration of killing” value with colistin [3] was 64 µg/mL; with colistin [4], 64 µg/mL; with tobramycin [5], no more than 1 µg/mL; with tobramycin [6], 4 µg/mL; with colistin [7], 256 µg/mL; with tobramycin [8], 4 µg/mL.
Regarding “Pseudomonas aeruginosa clinical isolate ESP039”, the “minimum concentration eradicating biofilm below detection limit” value turned out to be 64 µg/mL in the experiment with colistin [1] and 256 µg/mL with tobramycin [2]. Also, the “minimum concentration of killing” value was 64 µg/mL with colistin [3]; 64 µg/mL in the experiment with colistin [4]; 4 µg/mL in the experiment with tobramycin [5]; 16 µg/mL with tobramycin [6]; 64 µg/mL with colistin [7]; 64 µg/mL with tobramycin [8].
Consider “Pseudomonas aeruginosa clinical isolate ESP040”, for which the “minimum concentration eradicating biofilm below detection limit” value with colistin [1] and with tobramycin [2] was 64 µg/mL in each case. The “minimum concentration of killing” value with colistin [3] was 64 µg/mL; with colistin [4], 64 µg/mL; with tobramycin [5] it was 4 µg/mL; in the experiment with tobramycin [6], 16 µg/mL; with colistin [7], 64 µg/mL; in the experiment with tobramycin [8], 64 µg/mL.
Regarding “Pseudomonas aeruginosa clinical isolate ESP044”, the “minimum concentration eradicating biofilm below detection limit” value with colistin [1] and with tobramycin [2] was 256 µg/mL throughout. Besides, the “minimum concentration of killing” value amounted to 64 µg/mL with colistin [3]; 64 µg/mL with colistin [4]; 4 µg/mL in the experiment with tobramycin [5]; 64 µg/mL with tobramycin [6]; 256 µg/mL with colistin [7]; 256 µg/mL with tobramycin [8].
For “Pseudomonas aeruginosa clinical isolate ESP046”, the “minimum concentration eradicating biofilm below detection limit” value with colistin [1] is 256 µg/mL; in the experiment with tobramycin [2], 1020 µg/mL. Also, the “minimum concentration of killing” value in the experiment with colistin [3] turned out to be 256 µg/mL; in the experiment with colistin [4], 256 µg/mL; in the experiment with tobramycin [5] it was 16 µg/mL; in the experiment with tobramycin [6], 1020 µg/mL; with colistin [7], 256 µg/mL; in the experiment with tobramycin [8], 1020 µg/mL.
Turning to “Pseudomonas aeruginosa clinical isolate ESP050”, the “minimum concentration eradicating biofilm below detection limit” value in the experiment with colistin [1] amounted to 256 µg/mL; with tobramycin [2], 1020 µg/mL. In addition, the “minimum concentration of killing” value in the experiment with colistin [3] was determined as 64 µg/mL; with colistin [4] it was 256 µg/mL; in the experiment with tobramycin [5], 64 µg/mL; with tobramycin [6] it was 1020 µg/mL; in the experiment with colistin [7], 256 µg/mL; in the experiment with tobramycin [8], 1020 µg/mL.
“Pseudomonas aeruginosa clinical isolate ESP054”: the “minimum concentration eradicating biofilm below detection limit” value with colistin [1] and in the experiment with tobramycin [2] was 256 µg/mL in each case. Besides, the “minimum concentration of killing” value is 64 µg/mL in the experiment with colistin [3]; 256 µg/mL with colistin [4]; 4 µg/mL with tobramycin [5]; 4 µg/mL with tobramycin [6]; 256 µg/mL in the experiment with colistin [7]; 256 µg/mL with tobramycin [8].
As to “Pseudomonas aeruginosa clinical isolate ESP055”, the results for the “minimum concentration eradicating biofilm below detection limit” value with colistin [1] and in the experiment with tobramycin [2] were 256 µg/mL and 64 µg/mL, respectively. Also, the “minimum concentration of killing” value with colistin [3] was 64 µg/mL; with colistin [4], 256 µg/mL; with tobramycin [5], no more than 1 µg/mL; in the experiment with tobramycin [6] it was 16 µg/mL; with colistin [7] it was 256 µg/mL; with tobramycin [8], 16 µg/mL.
In the case of “Pseudomonas aeruginosa clinical isolate ESP058”, the “minimum concentration eradicating biofilm below detection limit” value in the experiment with colistin [1] was 256 µg/mL; in the experiment with tobramycin [2], 64 µg/mL. In addition, the “minimum concentration of killing” value with colistin [3] came out at 256 µg/mL; in the experiment with colistin [4], 256 µg/mL; in the experiment with tobramycin [5], 4 µg/mL; in the experiment with tobramycin [6] it was 16 µg/mL; with colistin [7], 256 µg/mL; in the experiment with tobramycin [8], 64 µg/mL.
For the test system “Pseudomonas aeruginosa clinical isolate ESP059”, the “minimum concentration eradicating biofilm below detection limit” value with colistin [1] and in the experiment with tobramycin [2] was 256 µg/mL each time. For the same test system, the “minimum concentration of killing” value in the experiment with colistin [3] is 64 µg/mL; in the experiment with colistin [4], 256 µg/mL; in the experiment with tobramycin [5], no more than 1 µg/mL; in the experiment with tobramycin [6], 4 µg/mL; with colistin [7] it was 256 µg/mL; with tobramycin [8], 256 µg/mL.
For the test system “Pseudomonas aeruginosa clinical isolate ESP060”, the “minimum concentration eradicating biofilm below detection limit” value with colistin [1] is 1020 µg/mL; with tobramycin [2] it was greater than 1020 µg/mL. Also, the “minimum concentration of killing” value with colistin [3] is 256 µg/mL; with colistin [4], 256 µg/mL; in the experiment with tobramycin [5], greater than 1020 µg/mL; with tobramycin [6], greater than 1020 µg/mL; in the experiment with colistin [7], 1020 µg/mL; with tobramycin [8], greater than 1020 µg/mL.
“Pseudomonas aeruginosa clinical isolate ESP063”: the “minimum concentration eradicating biofilm below detection limit” value in the experiment with colistin [1] was 256 µg/mL; with tobramycin [2], greater than 1020 µg/mL. The “minimum concentration of killing” value with colistin [3] is no more than 1 µg/mL; in the experiment with colistin [4], 16 µg/mL; with tobramycin [5], 256 µg/mL; with tobramycin [6], 1020 µg/mL; with colistin [7], 256 µg/mL; in the experiment with tobramycin [8], greater than 1020 µg/mL.
